Experimental data published in a melting point compilation (Tetko et al.; mined from patent text by program, amines drawn as free bases though some values may be those of a salt).

First: CNC(=O)c1cccc(NC(=O)Cc2cccc(OCc3ccccc3)c2)c1
Second: O=C(O)c1ccc(OCC(O)c2cc3ccccc3o2)cc1 (centres undefined)
The melting point of the first is lower: 150 °C for the first, 153 to 155 °C for the second.

First: O=C1Nc2cccc(-c3cccc4c3oc3ccccc34)c2C12COc1cc3c(cc12)OCO3 (centres undefined)
Second: Clc1cccc(Nc2ncnc3[nH]nc(NCc4cccc5c4OCO5)c23)c1
The melting point of the first is higher: greater than 230 °C for the first, 214 to 215 °C for the second.

Compared with `COc1ccc(C(=O)Nc2c(Cl)cc(NC(C)=O)cc2Cl)cc1OC1CCCC1`, `CCCC(=O)c1ccc(NC(=S)N2CCN(c3ncnc4cc(OC)c(OC)cc34)CC2)cc1` is lower in melting point: 250 to 252 °C for the first, 218 to 219 °C for the second.

First: COC(=O)CCc1cnoc1-c1ccc(Cl)cc1
Second: O=C(O)c1cccnc1NCc1ccc(Cl)cc1
The melting point of the first is lower: 51 to 52 °C for the first, 240 to 242 °C for the second.

First: CCCCCCc1cc2c(cc1C(=O)O)CCCCC2(C)C
Second: COc1cc2c(cc1O)CCN(C(C)=O)C2
The melting point of the first is lower: 74 to 75 °C for the first, 139 to 140 °C for the second.

`NS(=O)(=O)c1ccc(-c2cccn2-c2ccc(Cl)cc2Cl)cc1` and `COc1ccc(-c2cc(F)c(F)cc2-c2ccc(S(C)(=O)=O)cc2)cc1Cl` cannot be ordered by melting point: 147 to 149 °C for the first, 148 °C for the second.

Compared with `CCOC(=O)C(=CNn1cnnc1)C(=O)c1cc(F)c(Cl)nc1Cl`, `CC(Cl)C(=O)c1ncc(Cl)cc1F` (centres undefined) is lower in melting point: 89 to 95 °C for the first, 29 to 32 °C for the second.

First: COc1cc(C(=O)N2CCc3nnc(NN)cc3C2)cc(OC)c1OC
Second: COc1ccc(C2(CCN3CCC(C(=O)c4nc5ccccc5n4Cc4ccc(F)cc4)CC3)CCN(C(=O)c3cc(OC)c(OC)c(OC)c3)C2)cc1OC (centres undefined)
The melting point of the first is higher: 194 to 197 °C for the first, 80 to 83 °C for the second.

First: OCCOCCNc1ncncc1Cc1ccccc1
Second: CCCCC(Nc1ccncc1)c1ccccc1 (centres undefined)
The melting point of the first is lower: 86 to 87 °C for the first, 118 °C for the second.

Compared with `Nc1cc(-c2nnc(SCc3cccc(F)c3)o2)ccn1`, `Cc1cc(-c2ccc3ncc(N)nc3c2)cc(C)c1O` is higher in melting point: 175 to 176 °C for the first, 256 °C for the second.

Compared with `CC(C)c1ccc(OCCCCCCCCCCCCC(Cl)(Cl)C(=O)O)cc1`, `CCCCCCCNC(=O)Nc1ccccc1CCc1cc(C(C)C)c(O)c(C(C)C)c1` is higher in melting point: 47 to 49 °C for the first, 150 to 151 °C for the second.

`O=[N+]([O-])c1ccccc1-c1ccc2c(c1)S(=O)(=O)NC(C1CCCCC1)N2` (centres undefined) and `CCn1ncc2c(NCC3CCCCC3)c3ccc([N+](=O)[O-])cc3nc21` cannot be ordered by melting point: 204 to 207 °C for the first, 205 to 207 °C for the second.

First: COc1cc(Nc2c(C#N)cnc3cc(-c4cscc4CN4CCOCC4)ccc23)c(Cl)cc1Cl
Second: CC(Oc1ccc2nc(NC(=O)NCCN3CCOCC3)sc2c1)c1c(Cl)cccc1Cl (centres undefined)
The melting point of the first is higher: 188 to 190 °C for the first, 165 to 168 °C for the second.

First: Cc1cc(-c2ccc(OC3SCC(O)C(O)C3O)cn2)ccn1 (centres undefined)
Second: C[C@@H]1CCCN1CCCOc1ccc(-c2ccc(=O)[nH]n2)cn1
The melting point of the first is higher: 214 °C for the first, 178 to 181 °C for the second.

First: NCCCNC(=O)c1ccc(-c2nn(-c3ccc(C(=O)O)cc3)c3ccccc23)cc1
Second: Fc1ccc(-c2cn(-c3ccncc3)c3ccccc23)cc1
The melting point of the first is higher: 285 to 288 °C for the first, 115 to 118 °C for the second.

First: COc1ccc(NC(=O)c2coc3c2C(=O)CCCC3)c(F)c1
Second: CC(=O)Nc1ccc2c(c1)C(=O)CCC2
The melting point of the first is higher: 168 to 172 °C for the first, 165 to 166 °C for the second.

First: Cc1c(NC(=O)CC(C)(C)C)c(C)c2c(c1-c1cccc(F)c1)OCC2c1ccc(C(C)C)cc1 (centres undefined)
Second: CC(C)(C)c1cc(CCc2ccccc2NC(=O)NCCc2ccc(F)cc2)cc(C(C)(C)C)c1O
The melting point of the first is higher: 182 to 183 °C for the first, 177 to 179 °C for the second.

First: COC(=O)C(C)=CC(C)=Cc1cc([N+](=O)[O-])ccc1Cl
Second: CC1CC(=O)NN=C1c1ccc(Cl)c([N+](=O)[O-])c1 (centres undefined)
The melting point of the first is lower: 88 to 90 °C for the first, 186 to 188 °C for the second.

Compared with `O=C1NCCc2ccc(OCCCCN3CCC(c4cccc(Cl)c4Cl)CC3)cc21`, `Cn1nc2ccccc2c1C(=O)NCCCN1CCC(c2ccc(F)cc2)CC1` is higher in melting point: 113 to 114 °C for the first, 136 to 140 °C for the second.

First: CS(=O)(=O)OCCOc1ccccc1OCC1CC1
Second: NS(=O)(=O)c1ncc2ccccn12
The melting point of the first is lower: 90 to 91 °C for the first, 179 to 180 °C for the second.

Compared with `COc1cc2c(cc1Br)C(C)(C)CCC2(C)C`, `CC(=O)c1cc(-c2ccc(C(C)(C)C)cc2)c2c(c1)C(C)(C)CCC2(C)C` is higher in melting point: 77 to 78 °C for the first, 134 °C for the second.

Compared with `N#Cc1ncccc1C(=O)ON=Cc1ccc(Cl)cc1`, `COn1c(C#N)c(C#N)c(Br)c1-c1ccc(Cl)cc1` is higher in melting point: 160 °C for the first, 166 to 167 °C for the second.

First: O=[N+]([O-])c1ccc(C2OCc3ccc(CCl)cc3CO2)cc1 (centres undefined)
Second: Cc1[nH]n(Cc2cc([N+](=O)[O-])ccc2Cl)c2nc(-c3ccncc3)nc(=O)c1-2
The melting point of the first is lower: 138 to 140 °C for the first, 290 to 291 °C for the second.

Compared with `O=C(NC1CCN(CC(O)c2ccccc2)CC1)c1ccccc1` (centres undefined), `O=C1C(Cl)=C(c2ccccc2)C(=O)N1c1ccccc1` is lower in melting point: 178 to 180 °C for the first, 82 to 83 °C for the second.

Compared with `CC(=O)CC(=O)Nc1ccc(Cn2ccnc2)cc1`, `CCNC(=O)c1c(C2CC2)nc(CC)n1Cc1ccc2oc(-c3ccccc3C(=O)O)c(Br)c2c1` is higher in melting point: 175 °C for the first, 182 to 184 °C for the second.

Compared with `CCOC(=O)/C=C/c1cnc(-c2ccc(O)c(C34CC5CC(CC(C5)C3)C4)c2)cn1`, `Cc1c(-c2ccc(NC(=O)NC(C)(C)C)cc2)nc2n1CCc1ccccc1C2OC1CCN(C)CC1` (centres undefined) is lower in melting point: 212 to 215 °C for the first, 173 °C for the second.

First: O=C(Nc1nccs1)c1cn(-c2ccccc2)c2ccccc2c1=O
Second: Nc1cc(-c2ccccc2)c(=O)n2c1-c1sccc1CC2
The melting point of the first is higher: 290 °C for the first, 180 to 182 °C for the second.

First: COCCOCCOc1ccc(C=O)cc1
Second: CCOCCOC(=O)C1=C(C)NC(CO)=C(C(=O)OCC)C1c1cccc([N+](=O)[O-])c1 (centres undefined)
The melting point of the first is lower: 44 to 47 °C for the first, 99 to 100 °C for the second.

Compared with `Cc1cc(-c2ccc(C(F)(F)F)cc2)cn2c(-c3nc(-c4ccc(S(N)(=O)=O)s4)no3)cnc12`, `Cc1ccc(-c2c(NS(=O)(=O)c3ccc(C(C)(C)C)cc3)nc(-c3cccs3)nc2OCCO)cc1` is higher in melting point: 285 °C for the first, greater than 300 °C for the second.

First: C=C(Br)CN1Cc2cccc3[nH]c(=O)n(c23)CC1C (centres undefined)
Second: CCCc1[nH]c2cc(C(=O)OC)ccc2c1C(=O)C1CC1
The melting point of the first is lower: 150 °C for the first, 152 to 154 °C for the second.

First: O=C(O)[C@@H]1CCCN1C(=O)C1CCCC1S (some centres undefined)
Second: Cc1c(N2CCN(C)C(C)C2)c(F)cc2c(=O)c(C(=O)O)cn(C3CC3)c12 (centres undefined)
The melting point of the first is lower: 97 °C for the first, 181 to 183 °C for the second.

First: Cc1[nH]c(=O)[nH]c(=O)c1[N+](=O)[O-]
Second: Cc1cc(=O)n(-c2cccc(Cl)c2)c(=O)[nH]1
The melting point of the first is higher: 281 °C for the first, 250 to 252 °C for the second.

Going from `CCc1ccc2oc(Cc3cccc(OC)c3)c(CCNC(C)=O)c2c1` to `CNN(NC)C(=O)Nc1cccc2c1C(=O)c1c-2n[nH]c1-c1ccc(OC)cc1`, the melting point rises from 102 °C to greater than 300 °C.

First: CCOC(=O)c1c(CS(=O)(=O)c2nccn2C)nc2cc(OC)c(OC)cc2c1-c1ccc(OC)c(OC)c1
Second: CCCn1cc2c(C3C(=O)Nc4ccc(C#N)cc43)nc(NCCc3ccccn3)nc2n1 (centres undefined)
The melting point of the first is lower: 183 to 184 °C for the first, greater than 300 °C for the second.

Compared with `CC(C)c1cc(C(=O)CO[C@@H]2C[C@H](C)CC[C@H]2C(C)C)cc(C(C)C)c1O`, `COC(=O)c1ccc(C(C)C(C)NCC(O)c2ccc(O)c(CO)c2)cc1` (centres undefined) is higher in melting point: 83 to 84 °C for the first, 84.5 to 87 °C for the second.

Compared with `CC(C)(C)OC(=O)Nc1cc(N2CCSCC2)c(I)cc1[N+](=O)[O-]`, `Cc1c(C(=O)c2cnn(C(C)(C)C)c2O)ccc(S(C)(=O)=O)c1I` is higher in melting point: 132 to 134 °C for the first, 171 to 172 °C for the second.

First: CC(=O)OC1CCC2(C)C(CCC3C4CC5OC6(CC(C)C(C)(C)O6)C(C)(O)C5C4(C)CC(OC(C)=O)C32)C1 (centres undefined)
Second: Cn1c(=O)c2c(NC(=O)C3CCCCC3)onc2n(C)c1=O
The melting point of the first is higher: 253 to 256 °C for the first, 210 to 212 °C for the second.

Compared with `O=c1c2[nH]cnc2n(CC2CC2)c(=O)n1CC1CC1`, `CCCn1c(=O)[nH]c2ccc(C(=O)c3ncc4ccccn34)cc2c1=O` is higher in melting point: 203 °C for the first, 304 °C for the second.

First: COc1ccc(-n2ncc(C(=O)Nc3ccc(N4CCC(N5CCOCC5)CC4)c(C#N)c3)c2C)cc1
Second: N#CC(c1ccncc1)c1nnc(Nc2ccc3ncsc3c2)c2ccccc12 (centres undefined)
The melting point of the first is higher: 238 °C for the first, 163 to 164 °C for the second.

First: CC(=O)NC(C)Cc1cc(C)c(C)cc1CC(=O)O (centres undefined)
Second: Cc1cc(C(O)(C(F)(F)F)C(F)(F)F)cc(C)c1NCCN
The melting point of the first is lower: 67 to 69 °C for the first, 158 to 161 °C for the second.

Compared with `CNc1n[nH]c(=O)n1NC`, `CSc1nc2cc(Cl)c(S(N)(=O)=O)cc2[nH]1` is higher in melting point: 135 to 137 °C for the first, 253 to 254 °C for the second.

First: N=C(N)Nc1nc2cc(Cl)cc(Cl)c2[nH]1
Second: Clc1c2c(nc3cn[nH]c13)CCCC2
The melting point of the first is higher: 264 to 265 °C for the first, 190 to 193 °C for the second.

First: C#CCOC(=O)C1=C(N)NC(N)=C(C(=O)OCC#C)C1c1cccc([N+](=O)[O-])c1
Second: Cc1c[nH]c2c(Sc3nc4cc(Cl)ccc4[nH]3)ccc(N)c12
The melting point of the first is lower: 170 °C for the first, 229 to 230 °C for the second.

First: CCCN(CCC)C(=O)CNc1nc(-c2ccccc2)nc(CC)c1C
Second: CCCCC[C@@H](C(=O)O)c1cccc2c1OCO2
The melting point of the first is higher: 83 to 84 °C for the first, 47 to 48 °C for the second.

First: CC(C)(C)OC(=O)C(Cc1c[nH]cn1)N(C(=O)OC(C)(C)C)C(=O)OC(C)(C)C (centres undefined)
Second: C=CCSCCON=C(C(=O)O)c1csc(NC=O)n1
The melting point of the first is higher: 98 °C for the first, 70 to 78 °C for the second.

Compared with `CCn1ncnc1COc1nc2c(cc1C(C)(C)C)nnn2-c1ccccc1F`, `CC(C)(C)C1=C(c2cc3cc(O)ccc3s2)OCC1(C)C` is higher in melting point: 117 to 120 °C for the first, 196 °C for the second.

Compared with `CN(C)C1(c2ccccc2)CCC(c2cccs2)(c2[nH]c3ccccc3c2CCc2ccncc2)CC1` (centres undefined), `CCCCC(=O)Nc1cccc(-n2nc(CCCC)n(Cc3ccc(-c4ccccc4S(=O)(=O)NC(=O)c4ccccc4Cl)cc3)c2=O)c1` is higher in melting point: 54 to 60 °C for the first, 102 to 105 °C for the second.

First: CN(C)c1ccc(C=C2C(=O)NC(=S)NC2=O)cc1
Second: O=C(O)c1c(O)c(-c2ccc(-c3ccccc3)cc2)nc2c(Cl)cc(Cl)cc12
The melting point of the first is higher: 272 °C for the first, 215 to 217 °C for the second.

First: O[C@H](COc1cccc2[nH]ccc12)CN1CC=C(c2c[nH]c3c(Cl)c(Cl)ccc23)CC1
Second: O=C(O)CCCCc1ccc(CCNS(=O)(=O)c2ccc(Cl)cc2)cc1
The melting point of the first is higher: 140 to 145 °C for the first, 118 to 120 °C for the second.

`CNCC(=O)NC(=O)N(CCCl)N=O` gave a melting point of 86 to 88 °C.
